Measurements taken from patent publication US7067632B2, “VP22 proteins and uses thereof” (priority 1997, dated 2006).

Columns and labels:
Assay type in all cases: cell-based
[1] = system: cellular microtubules (MTs) in COS 1 cells; experiment: VP22 deletion mutants transfected into COS 1 cells, immunofluorescence with anti VP22 antibody AGV30: MT bundling and movement between cells; conditions: transfected COS 1 cells
Source text: To broadly identify the region of VP22 involved in MT interaction, we utilised a range of C terminal deletion mutants of the protein. The plasmids encoding WT, del-267, del-192 and del-119 (FIG. 3a) forms of VP22 were transfected into COS 1 cells and analysed by immunofluorescence using the anti VP22 antibody AGV30. The del-267 and del-119 constructs comprise respectively aminoacids 1–267 inclusive, and aminoacids 1–119 inclusive of the wild type sequence of VP22 of HSV1 as disclosed in above-cited WO 97/05265 and references cited therein. The del-192 construct consists of aminoacids 1–191 inclusive plus a residue 192 mutated to leucine.
In these examples the longer sequences have increasing efficiency.

[2] = system: cellular microtubules (MTs) in COS 1 cells
[3] = system: cellular microtubules (MTs) in COS 1 cells; experiment: Double immunofluorescence (anti-VP22, anti alpha tubulin) of COS 1 cells expressing VP22: co-localisation with and bundling of microtubules
Source text: To investigate the possibility that the pattern of localisation in cells expressing VP22 represents co-localisation with a component of the cytoskeleton, COS 1 cells were transfected with the VP22 expression plasmid pGE109. Forty hours after transfection, the cells were fixed with 100% methanol and double immunofluorescence carried out with antibodies against VP22 (polyclonal AGV30) and alpha tubulin (monoclonal anti alpha tubulin, Sigma).
COS 1 cells treated in the same manner were exposed to the MT stabilising drug taxol (10 microM) for 30 minutes prior to fixation. […] The MT binding property of VP22 can also be used to deliver coupling products between VP22 and other substances, such as taxol or a related compound to MTs.

[4] = system: acetylated form of tubulin; experiment: Acetylation of MTs: colocalisation immunofluorescence and Western blot with monoclonal antibody specific for acetylated tubulin
Source text: Acetylation of MTs was previously reported as a marker for MT stability (Piperno et al, J Cell Biol 104 (1987) 289–302). This has been shown by use of monoclonal antibody specific for the acetylated form of tubulin (obtainable from Sigma Chemical), in colocalisation assays by immunofluorescence, and by Western blot assays. This effect can be used as a biochemical marker for analysing and quantitating the level of MT stabilisation induced by VP22 or a variant or derviative thereof.

Compound: 1–159: VP22 fragment consisting of residues 1–159
- MT bundling / cytoplasmic filament formation by VP22 forms [1]: did not appear to retain the MT-bundling activity

Compound: 1–172: variant VP22 protein consisting of residues 1–172 of the native VP22 of HSV1
- MT bundling / cytoplasmic filament formation by VP22 forms [1]: retain in some degree the ability to bundle microtubules

Compound: COC(=O)Nc1nc2ccc(C(=O)c3cccs3)cc2[nH]1 [Nocodazole, nocodazole, reference compound]
- Effect of nocodazole on the MT network of untransfected cells [2]: depolymerisation of the MT network

Compound: CC(=O)O[C@H]1C(=O)[C@@]2(C)[C@H]([C@H](OC(=O)c3ccccc3)[C@]3(O)C[C@H](OC(=O)[C@H](O)[C@@H](NC(=O)c4ccccc4)c4ccccc4)C(C)=C1C3(C)C)[C@]1(OC(C)=O)CO[C@@H]1C[C@@H]2O [taxol, reference compound]
- Effect on MTs in untransfected cells ([3]; untransfected COS 1 cells, taxol 10 microM, 30 minutes prior to fixation): creating large bundles of MTs

Compound: VP22: product of the herpes simplex virus type 1 (HSV 1) UL49 gene, the structural tegument protein VP22, 32 kD
- Co-localisation with and bundling of the cellular MT network ([3]; COS 1 cells transfected with pGE109, fixed 40 h after transfection): colocalises and reorganises the cellular MT network into bundles
- MT bundles in VP22 expressing cells exposed to taxol ([3]; VP22 expressing COS 1 cells plus taxol 10 microM, 30 minutes): these bundles were even more striking and again co-localised with VP22
- Acetylation of MTs (marker for MT stability) [4]: associated with acetylation of the MTs
- MT bundling / cytoplasmic filament formation by VP22 forms [1]: VP22 in cytoplasmic filaments
- Movement of the protein between cells (transport) [1]: surrounded by cells with VP22 in their nuclei
- Stabilisation of MTs against nocodazole depolymerisation ([2]; VP22 expressing COS 1 cells, nocodazole 500 ng/ml, 30 minutes): does not depolymerise the MTs
- Stabilisation of MTs against depolymerisation by cold ([2]; incubation of cells at 4 deg C): stabilised MTs against depolymerisation by 4 deg C. incubation
